From PMC12137978, “Design, molecular characterization and therapeutic investigation of a novel CCR8 peptide antagonist that attenuates acute liver injury by inhibiting infiltration and activation of macrophages” (Acta Pharmaceutica Sinica. B, 2025)
Where no end group is shown, it is not given here.

What was measured:
[1] = tested on: RAW264.7 macrophages; assay: Alamar Blue cell viability assay, RAW264.7; format: cell-based, mouse; details: 10 μmol/L, 24 h, with or without LPS/IFNγ; three independent experiments
Protocol: To assess the effects of AP8ii on the cell viability, cells were plated in 24-well plates, cultured overnight and incubated with AP8ii or R243 (10 μmol/L) with or without 100 ng/mL LPS and 10 ng/mL IFNγ (for 24 h, cell viability assays were performed using Alamar Blue reagent (Invitrogen, Carlsbad, CA, USA) as per manufacturer's instructions. The results are represented as% cell viability normalized to untreated control cells (at 100%). All measurements were performed in triplicates in three independent experiments.

[2] = tested on: C57BL/6 mice with CCl4-induced acute liver injury; assay: CCl4-induced acute liver injury mouse model; format: in vivo; details: 1 μmol/kg twice daily, 2 days after CCl4
Protocol: All the animal experiments were carried out according to the ethical guidelines for the Care and Use of Laboratory Animals (Utrecht University, The Netherlands). CCl4 was prepared in olive oil ([…], 63.76 mg/mL) and AP8ii (1 μmol/kg) and R243 (1 μmol/kg) were prepared in hydroxypropyl-β-cyclodextrin (10%) and Kolliphor HS15 (5%) containing MilliQ water (85%). Male C57BL/6 mice (12 weeks old) received a single intraperitoneal injection (IP) of olive oil (healthy n = 9) or 0.2 mL/kg (318.8 mg/kg) CCl4 (vehicle n = 9, AP8 n = 9 and R243 n = 9) on Day 1. On Days 2 and 3, the CCl4-treated mice received vehicle, 1 μmol/kg AP8 (1.157 mg/kg) or 1 μmol/kg R243 (0.35744 mg/kg) twice daily. […] Total alanine aminotransferase (ALT) and aspartate transferase (AST) levels were determined in the plasma samples as per standard biochemical assays.
Cell suspension were prepared from freshly collected liver tissues using the TissueGrinder (TG, Fast Forward Discoveries GmbH, Mannheim, Germany) as detailed earlier. […] Cells were washed 3 times, stained with rat anti-mouse fluorescent antibodies (CD45-APC, CD11b-PE and F4/80-PE/Cy7, 0.2 μg/100 μL, Biolegend) for 1 h, Hoechst 33,342 (10 μg/100 μL, Thermo Fisher) for 30 min, and analyzed within 7 days. […]

[3] = AP8ii peptide stability in human serum by analytic HPLC; format: in vitro ADME; details: 37 °C
Protocol: Analytic HPLC measurements were conducted in an Agilent 1260 Infinity II Liquid Chromatography system, equipped with a Polaris C18 column and a UV–Vis detector. The samples were analyzed with a mobile phase of MilliQ (solvent A) and acetonitrile (solvent B), both containing 0.1% v/v of formic acid, using a 1 mL/min flow rate within a run of 22 min. The gradient ramp was from 1% solvent B up to 60% solvent B in 15 min, then from 60% solvent B to 99% solvent in 5 min, finally 2 min at 99% of solvent B. Each injection used 50 μL, out of the 150 μL in the vial. Detection was performed at λ = 280 nm. Integration of the signals (e.g., peak area) in the chromatogram was performed using OpenLab CDS (data analysis software).
An adapted protocol based on[43] was followed for analysis. In a vial, 475 μL of 1 mmol/L peptide solution was mixed with 50 μL of human serum (making 0.95 mmol/L peptide in 10 vol% serum). The sample was incubated at 37 °C for increasing time. At 0, 1, 2, 4 and 24 h, an aliquot of 125 μL was taken from the vial, quenched with 50 μL of 10% TFA solution in MilliQ and centrifuged for 1 min at 13,000 rpm. Then 150 μL of the supernatant was taken for analysis. Control samples containing only peptide (e.g., without serum) and only human serum (e.g., without peptide) were included. All measurements were conducted in duplicates. Data of peak absolute area were expressed as mean ± standard deviation (SD).

[4] = biological target: T1, CCR8 on LPS/IFNγ-activated RAW264.7 macrophages (Mus musculus, UniProt P56484); assay: Competitive peptide binding study (co-incubation and pre-incubation)
T1 construct: endogenous in cells
T1 sequence (P56484 1-353): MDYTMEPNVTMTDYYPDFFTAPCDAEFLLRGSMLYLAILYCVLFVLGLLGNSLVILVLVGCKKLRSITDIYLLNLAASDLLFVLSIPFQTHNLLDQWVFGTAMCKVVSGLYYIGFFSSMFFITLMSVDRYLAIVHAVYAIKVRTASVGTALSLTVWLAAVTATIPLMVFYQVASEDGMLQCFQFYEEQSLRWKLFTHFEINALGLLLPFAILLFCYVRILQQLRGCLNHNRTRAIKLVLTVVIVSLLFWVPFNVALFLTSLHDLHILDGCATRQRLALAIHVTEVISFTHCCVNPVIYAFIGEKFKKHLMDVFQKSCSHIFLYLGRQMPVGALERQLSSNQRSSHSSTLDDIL
Protocol: For competitive studies, the peptide binding protocol was used however competition with R243, CCL1 and anti-CCR8 antibody was performed. Two types of competitive studies were performed—co-incubation and pre-incubation where macrophages were either co-incubated with equimolar concentration of R243 (10 μmol/L), CCL1 (100 ng/mL) or anti-CCR8 antibody (5.0 μg/mL, Cat. No. MAB-8324, Novus biologicals, […], USA) and AP8ii (10 μmol/L), or preincubated with R243 (10 μmol/L), CCL1 (100 ng/mL) or anti-CCR8 antibody (5.0 μg/mL) for 2 h followed by addition of AP8ii (10 μmol/L) for an additional 4 h. Finally, images were captured at 10 ×, 20 × and 40 ×, and RhB intensity was analyzed using ImageJ software and normalized to the number of nuclei using DAPI.

Molecule | toxicity (Alamar blue-based metabolic assay) [1] | body weight during treatment [2] | remaining at 24 h, 0.95 mmol/L ([3]; 0.95 mmol/L peptide in 10 vol% human serum, 24 h, TFA quench, analytic HPLC C18, UV 280 nm, peak area, duplicates, read-out: peptide remained intact after 24 h of incubation) | half-life at 0.95 mmol/L ([3]; 0.95 mmol/L peptide in 10 vol% human serum, analytic HPLC UV 280 nm, read-out: t1/2 in human serum) | stability on exposure to serum (peak absolute area) ([3]; 10 vol% human serum, first 4 h, analytic HPLC UV 280 nm) | AP8ii binding blocked, co-incubation study ([4]; competitor (R243 10 μmol/L, CCL1 100 ng/mL, anti-CCR8 antibody 5.0 μg/mL) co-incubated with RhB-labeled AP8ii 10 μmol/L 4 h) | AP8ii binding blocked, pre-incubation study ([4]; competitor (R243 10 μmol/L, CCL1 100 ng/mL, anti-CCR8 antibody 5.0 μg/mL) preincubated 2 h, then RhB-labeled AP8ii 10 μmol/L 4 h)
YEWRFYHG [AP8ii, Tyr-Glu-Trp-Arg-Phe-Tyr-His-Gly] | no significant toxicity | increased | > 82% | > 24 h | remained stable during the first 4 h | – | –
CCL1: Human Recombinant I-309 (CCL1), CCR8 ligand (300-37-B, Tebu-bio) (protein, UniProt P22362 24-96, looked up) C-C motif chemokine 1: KSMQVPFSRCCFSFAEQEIPLRAILCYRNTSSICSNEGLIFKLKRGKEACALDTVGWVQRHRKMLRHCPSKRK | – | – | – | – | – | ~20% | ~30%
